Legend:
CBP/p300 KIX domain [1] = target: T1, CBP/p300 KIX domain (Mus musculus, UniProt P45481); test: PrOF NMR ligand titration; assay type: binding
CBP/p300 KIX domain [2] = target: T1, CBP/p300 KIX domain; test: PrOF NMR chemical shift perturbation at fixed ligand concentration; assay type: binding; conditions: 3FY-labeled KIX; 833 µM to 5 mM small molecule
MLL-KIX PPI site = conditions: cited from earlier work

T1 sequence (P45481 586-665): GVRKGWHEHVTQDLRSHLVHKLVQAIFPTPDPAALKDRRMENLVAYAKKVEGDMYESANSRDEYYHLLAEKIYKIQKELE

| Compound | chemical shift perturbation (PrOF NMR), in words (CBP/p300 KIX domain [2]) | IC50 (MLL-KIX PPI site) [µM] | also measured |
| --- | --- | --- | --- |
| CC(C(=O)O)c1ccc(-c2ccccc2)c(F)c1 (stereo not drawn) [Flurbiprofen, flurbiprofen] | – | – | Kd (CBP/p300 KIX domain [1]): 5900 ± 600 µM; Ligand Efficiency (CBP/p300 KIX domain [1]; calculated from the PrOF Kd): 0.17 kcal mol^−1 NHA^−1 |
| O=C(Nc1ccc(Cl)cc1)c1cc2ccccc2cc1OP(=O)(O)O [KG-501, Naphthol AS-E phosphate] | identified a binding interaction | – | – |
| CC(C)Cc1ccc(C(C)C(=O)O)cc1 (stereo not drawn) [ibuprofen] | significant chemical shift perturbations | – | – |
| CCCCCc1c2c(cc(O)c1C(=O)O)OC(=O)c1c(cc(OC)cc1C(=O)CCCC)O2 [lobaric acid] | – | 17 | – |
| CCCc1cc(OC)cc(O)c1C(=O)Oc1c(OC)cc(CCC)c(C(=O)O)c1O [sekikaic acid] | – | 34 | – |

From article PMC4423596 (Angewandte Chemie (International ed. in English), 2015)
